Measurements: patent US7576177B2, “Hsp peptides and analogs for modulation of immune responses via antigen presenting cells” (Andromeda Biotech Ltd., priority 2002, dated 2009)

Tests used:
[1] = tested on: BALB/c DO.11.10 bone marrow cells cultured for dendritic cells, cocultured with DO.11.10 T cells; test: Education of mouse dendritic cells and stimulation of T-cells, cytokine content of supernatant; assay type: cell-based
Method: Whelan et al. (J. Immunol 164, 6453-6460, 2000) addressed the problem in mice by an experiment in which mouse bone marrow cells were grown for 6 days in culture with GM-CSF to give immature dendritic cells. These dendritic cells were then incubated overnight with LPS (known to drive cells to DC1) or with a nematode antigen. The reason for the choice of nematode antigen was that injection of this antigen in vivo gives rise to a Th2 response in animals. After this so-called “education” of the dendritic cells, they were washed and subsequently incubated with naive T cells in the presence of antigenic stimulus. The experiment was possible because of the use of transgenic mice in which all the T cells respond to the same peptide (OVA323-339) which absolves the system from any question of bias of the T cell response at the level of the T cells. Any bias should be a consequence of the “education” of the dendritic cells. After three days of incubation the cytokine responses produced by the T cells, were measured by ELISA. […] In contrast, nematode antigen incubation gave rise to more IL-4 (Th2) than did controls while the LPS incubation inhibited the IL4 response. Therefore, the nematode antigen was said to drive cells to DC2. A similar method was used for testing the compounds of the present invention: • 1. Bone marrow cells were extracted from the leg bones of DO.11.10 mice transgenic for the TcR. All cells from these mice respond to the OVA peptide ([…]). • 2. Bone marrow cells were plated at 10^6 cells/ml in 100 mm diameter tissue culture petri dishes in Iscove's medium supplemented with 10% FCS, […], 1 mM sodium pyruvate, penicillin/streptomycin (according to manufacturer's recommendations), non-essential amino acids, 50 μM β-mercaptoethanol and 10 ng/ml mGM-CSF. • 3. After 4 days, the medium was carefully removed and replaced with fresh medium • 4. After 6 days, the non-adherent cells were harvested and used as immature dendritic cells • 5. The immature dendritic cells are plated at 1×10^6 cells/ml, 1 ml/well in 24 well plates in the above medium with various reagents added at various concentrations and incubated overnight. This is the stage in which the dendritic cells are “educated” • 6. The next day the cells were harvested and washed 3 times then resuspended at 5×10^4 cells/ml in 1 ml of the above medium but without the addition of GM-CSF to be cocultured with T cells • 7. […] 5×10^5 T cells were cultured with the dendritic cells from step 6 in the presence of various concentrations of the OVA peptide (0, 0.3 nM, 3 nM and 30 nM). • 9. After 3 days PMA (50 ng/ml) and ionomycin (500 ng/ml) were added to further stimulate the cells. • 10. The next day the cell supernatants were collected and assayed for cytokine content (Interferon γ, IL4, IL-10 and IL-12).
The compound was tested for stimulation of DO.11.10 bone marrow cells according to the assay described above (Production and education of mouse dendritic cells and stimulation of T-cells).
BALB/c DO.11.10 bone marrow cells were cultured for dendritic cells and then stimulated with LPS 1 μg/ml, LPS 10 μg/ml, hsp60 3 μg/ml, hsp60 10 μg/ml, p277 5 μg/ml and p277 50 μg/ml. The cells were then transferred to wells with T cells from fresh BALB/c DO.11.10 mice and stimulated with OVA peptide at different concentrations (0, 0.3 nM, 3 nM, 30 nM). Supernatant was collected after 48 hours for assay. 30 μl was taken for IFN, 40 μl for IL4 and IL-10 and 50 μl for IL-12 assays. The results are presented in the following tables, as amount of cytokine (pg/ml), and in FIG. 1.

[2] = tested on: peripheral blood mononuclear cells cultured with GM-CSF and IL4 (dendritic cells); test: Peripheral blood derived dendritic cells: secreted cytokines (IP-10, IL-8) and cell surface antigens (CD83, CD86); assay type: cell-based, human
Method: The effect of the compositions of the present invention on peripheral blood derived dendritic cells, was tested according to a protocol described by Re, F. and Strominger, J. L. 2001. Toll-like receptor 2 (Tlr2) and Tlr4 differentially activate human dendritic cells. (J Biol Chem 276: 37692-9). According to this method immature dendritic cells derived from human peripheral blood are used. The outcome after incubating the cells with tested molecules is different if the stimulation is through the Toll 4 receptor or the Toll 2 receptor. According to the authors, Toll 2 signaling by stimulation with zymosan is associated with a Th2 kind of response (exemplified by IL-8) and Toll 4 signaling, such as obtained by LPS stimulation (exemplified by IP-10), with a Th1 type of response. The compositions of the present invention were tested using a similar assay system in order to check which stimulation type they induce. […] The increase in CD86 expression after exposure of APCs to Hsps or Hsp derived peptides is important since CD86 (B7.2) is an essential component of the immunological synapse formed between T cells and APC. This synapse consists of CD80 and CD86 on the side of the APC and CD28 and CD40 on the side of the T cell. T cell recognition of peptide on APC without the concurrent expression of CD86 gives rise to anergy instead of a T cell response. Therefore in order to produce a response all components must be present.
The assay was based on the protocol described by Re, F. and Strominger, J. L. 2001. Toll-like receptor 2 (Tlr2) and Tlr4 differentially activate human dendritic cells. (J. Biol Chem 276: 37692-9).
Peripheral blood mononuclear cells were prepared from leucocytes from blood lots obtained from the blood bank. The cells were plated at 10^8 cells/10 ml/Petri dish in RPMI medium including 10% FCS and allowed to adhere at 37° C. for 2 hours. At the end of this time, the non-adherent cells were washed off the plates with PBS and the adherent cells resuspended in fresh medium as before. The cells were then cultured for at least 8 days with the addition of GM-CSF and IL4 with the medium changed every 4 days. After this time, the cells were harvested and cultured overnight with LPS, zymosan or p277(Val^6-Va^11). The next day, the supernatant was collected for assay of the secreted cytokines (IP-10 and IL-8) and the cells were harvested for investigation of the cell surface antigens (CD83, CD86). CD83 is an antigen characteristic of dendritic cells. […] The second marker, CD86 (B7.2) is characteristic of mature dendritic cells. The marker CD86 is an essential component of the immunological synapse formed between T cells and APC. This synapse consists of CD80 and CD86 on the side of the APC and CD28 and CD40 on the side of the T cell. This is of course in addition to the specific recognition between the T cell receptor and peptide held in the MHC of the APC. T cell recognition of peptide on APC without the concurrent expression of CD86 gives rise to anergy instead of a T cell response.

mouse monocyte line J774 = test: Secretion of oxygen free radicals (oxidative burst) from mouse monocyte line; assay type: cell-based; details: J774, FIG. 5
[3] = compared with non-exposed dendritic cells
[4] = dendritic cells educated with 1 μg/ml, 0.3 nM Ova peptide
[5] = dendritic cells educated with 10 μg/ml, 0.3 nM Ova peptide

| Substance | IFN gamma produced by T cells after treatment of dendritic cells (in words) [1, 3] | IL-4 produced by T cells after exposure of dendritic cells (in words) [1, 3] | IL-4 secretion of T cells [1, 4] | IL-10 secretion of T cells [1, 4] | IL-12 secretion of T cells [1, 4] | IFN secretion of T cells ([1]; dendritic cells educated with 1 μg/ml, T cells stimulated with 0.3 nM Ova peptide) | IFN secretion of T cells [1, 5] | IL-4 secretion of T cells [1, 5] | IL-10 secretion of T cells [1, 5] | IL-12 secretion of T cells [1, 5] | maturation: percentage of cells stained with anti-CD86 ([2]; overnight stimulation, FIG. 3) | IL-8 ([2]; stimulus 10 ng/ml, overnight) | IP-10 ([2]; stimulus 10 ng/ml, overnight) | inhibition of the oxidative burst (secretion of oxygen free radicals) (mouse monocyte line J774) |
| --- | --- | --- | --- | --- | --- | --- | --- | --- | --- | --- | --- | --- | --- | --- |
| lipopolysaccharide [LPS, reference compound] | increased IFN gamma | decreased IL4 | 11.07 pg/mL | 15.26 pg/mL | 90.00 pg/mL | 328.33 pg/mL | 478.89 pg/mL | 1.07 pg/mL | 75.48 pg/mL | 131.25 pg/mL | increase of maturation | 3131 pg/mL | 2520 pg/mL |  |
| VALLRVIPA (Homo sapien) [p277(442-450, Val^6Val^11)] |  |  |  |  |  |  |  |  |  |  |  |  |  | effective |
